Tests used:
[1] = target: T1, cloned human m2 muscarinic receptor (Homo sapiens, UniProt P08172); assay: Muscarinic binding, inhibition of 3H-QNB binding, m2; settings: for m1/m2 (Ki ratio): Ki for m1 receptors divided by Ki for m2 receptors, higher ratio = greater m2 selectivity; for m4/m2 (Ki ratio): Ki for m4 divided by Ki for m2; for m1/m2 and m4/m2 ratios, in words: tests reported in Table 1
T1 construct: expressed in transfected cells; host or cells: CHO (stably transfected), membranes
T1 sequence (P08172 1-466): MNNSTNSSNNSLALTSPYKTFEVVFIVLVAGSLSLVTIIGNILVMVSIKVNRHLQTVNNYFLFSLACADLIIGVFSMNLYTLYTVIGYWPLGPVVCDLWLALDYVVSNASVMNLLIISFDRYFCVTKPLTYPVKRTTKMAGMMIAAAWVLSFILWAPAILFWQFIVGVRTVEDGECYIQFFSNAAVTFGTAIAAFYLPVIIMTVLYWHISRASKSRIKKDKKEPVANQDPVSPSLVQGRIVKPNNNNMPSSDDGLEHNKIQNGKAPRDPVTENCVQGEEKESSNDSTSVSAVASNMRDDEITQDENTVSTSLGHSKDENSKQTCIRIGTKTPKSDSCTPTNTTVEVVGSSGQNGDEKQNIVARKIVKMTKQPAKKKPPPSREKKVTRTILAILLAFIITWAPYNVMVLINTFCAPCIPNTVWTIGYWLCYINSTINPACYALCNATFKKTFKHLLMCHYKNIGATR

m2 muscarinic = settings: Baumgold et al., Eur. J. Pharmacol., 251 (1994) 315-317; cited from earlier work
[2] = target: T2, cloned human m4 muscarinic receptor (Homo sapiens, UniProt P08173); assay: Muscarinic binding, inhibition of 3H-QNB binding, m4; settings: CHO cell membranes, 25° C., 90 minutes
T2 construct: expressed in transfected cells; host or cells: CHO (stably transfected), membranes
T2 sequence (P08173 1-479): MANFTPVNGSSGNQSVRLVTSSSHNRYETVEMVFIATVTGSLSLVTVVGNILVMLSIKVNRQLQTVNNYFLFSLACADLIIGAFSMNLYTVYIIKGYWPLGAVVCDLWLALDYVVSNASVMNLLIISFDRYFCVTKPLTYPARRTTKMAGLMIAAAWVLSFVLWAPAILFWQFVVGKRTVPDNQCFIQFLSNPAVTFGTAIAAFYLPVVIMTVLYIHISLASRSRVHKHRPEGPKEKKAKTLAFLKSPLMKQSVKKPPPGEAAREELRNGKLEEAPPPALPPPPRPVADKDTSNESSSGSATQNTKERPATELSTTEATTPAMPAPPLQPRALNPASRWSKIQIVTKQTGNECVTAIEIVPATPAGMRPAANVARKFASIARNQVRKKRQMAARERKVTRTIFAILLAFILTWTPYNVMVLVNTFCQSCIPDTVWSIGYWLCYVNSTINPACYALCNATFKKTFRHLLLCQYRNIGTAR

[3] = target: T3, cloned human m1 muscarinic receptor (Homo sapiens, UniProt P11229); assay: Muscarinic binding, inhibition of 3H-QNB binding, m1; settings: CHO cell membranes, 25° C., 90 minutes
T3 construct: expressed in transfected cells; host or cells: CHO (stably transfected), membranes
T3 sequence (P11229 1-460): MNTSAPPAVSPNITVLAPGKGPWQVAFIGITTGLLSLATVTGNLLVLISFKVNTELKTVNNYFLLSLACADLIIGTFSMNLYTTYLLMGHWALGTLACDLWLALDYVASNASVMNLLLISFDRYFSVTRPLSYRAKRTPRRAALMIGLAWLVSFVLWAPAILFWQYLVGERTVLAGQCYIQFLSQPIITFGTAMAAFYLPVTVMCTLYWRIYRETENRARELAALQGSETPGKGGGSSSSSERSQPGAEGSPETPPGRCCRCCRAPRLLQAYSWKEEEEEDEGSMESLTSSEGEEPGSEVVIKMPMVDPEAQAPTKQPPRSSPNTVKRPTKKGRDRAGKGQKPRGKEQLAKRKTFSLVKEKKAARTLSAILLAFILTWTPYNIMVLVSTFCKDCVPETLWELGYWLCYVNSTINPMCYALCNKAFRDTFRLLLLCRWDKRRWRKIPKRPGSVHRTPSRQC

SMILES | m1/m2 (Ki ratio) [1] | m4/m2 (Ki ratio) [1] | also measured
c1cnc(Oc2ccc3c(c2)CCC3N2CCN(C3CCCCC3)CC2)nc1 (single isomer, unassigned) [Compound 10] | 13.2 | 1.5 | m1/m2 and m4/m2 ratios, in words [1]: useful values of the m1/m2 and m4/m2 ratios
c1cnc(Oc2ccc3c(c2)CCC3N2CCN(C3CCCCC3)CC2)nc1 (single isomer, unassigned) [Compound 11] | 3.6 |  | 
COc1ccc(S(=O)(=O)c2ccc3c(c2)CCC3N2CCN(C3CCCCC3)C[C@H]2C)cc1 (single isomer, unassigned) [Compound 14] | 18.4 | 2.6 | m1/m2 and m4/m2 ratios, in words [1]: useful values of the m1/m2 and m4/m2 ratios
COc1ccc(S(=O)(=O)c2ccc3c(c2)CCC3N2CCN(C3CCCCC3)C[C@H]2C)cc1 (single isomer, unassigned) [Compound 15] | 11.2 | 2.5 | m1/m2 and m4/m2 ratios, in words [1]: useful values of the m1/m2 and m4/m2 ratios
C[C@H]1CC[C@@H]2N(C1)C[C@H]1[C@@H]3C[C@H]4[C@@H](CC(=O)[C@H]5C[C@@H](Cl)CC[C@@]54C)[C@@H]3CC[C@H]1[C@]2(C)O [3-α-chloroimperialine] |  |  | m2 muscarinic antagonist selectivity, in words (m2 muscarinic): highly selective m2 muscarinic antagonist
O=S(=O)(c1ccccc1)c1ccc2c(c1)CCC2N1CCN(CCO)CC1 (stereo not shown) [Compound 1] | 4.5 | 1.3 | 
O=[N+]([O-])c1ccc(Oc2ccc3c(c2)OCCC3N2CCN(C3CCCCC3)CC2)cc1 (stereo not shown) [Compound 2, 1-Cyclohexyl-4-[7-[(4-nitrophenyl)oxy]-chroman-4-yl]-piperazine] | 1.5 |  | 
Nc1ccc(Oc2ccc3c(c2)OCCC3N2CCN(C3CCCCC3)CC2)cc1 (stereo not shown) [Compound 3] | 0.6 | 0.3 | 
CC(=O)Nc1ccc(Oc2ccc3c(c2)OCCC3N2CCN(C3CCCCC3)CC2)cc1 (stereo not shown) [Compound 4] | 1.0 | > 0.9 | 
c1cnc(Oc2ccc3c(c2)CCCC3N2CCN(C3CCCCC3)CC2)nc1 (stereo not shown) [Compound 5, 4-Cyclohexyl-1-piperazinyl-[6-[(2-pyrimidinyl)oxy]]-1,2,3,4-tetrahydro-naphthalene] | 7.5 | 1.6 | 
O=[N+]([O-])c1ccc(Oc2ccc3c(c2)CCCC3N2CCN(C3CCCCC3)CC2)cc1 (stereo not shown) [Compound 6] | 6.6 | 0.8 | 
Nc1ccc(Oc2ccc3c(c2)CCCC3N2CCN(C3CCCCC3)CC2)cc1 (stereo not shown) [Compound 7] | 4.0 | 0.8 | 
c1cnc(Oc2ccc3c(c2)CCCCC3N2CCN(C3CCCCC3)CC2)nc1 (stereo not shown) [Compound 8] | 3.3 | 0.9 | Ki [2]: 23 nM; Ki ([1]; 3H-QNB binding, CHO cell membranes, 25° C., 90 minutes): 27 nM; Ki [3]: 88 nM
c1cnc(Oc2ccc3c(c2)CCC3N2CCN(C3CCCCC3)CC2)nc1 (stereo not shown) [Compound 9] | 7.7 |  | m1/m2 and m4/m2 ratios, in words [1]: useful values of the m1/m2 and m4/m2 ratios
c1cnc(Oc2ccc3c(c2)CC(CC2CCCCC2)C3N2CCN(C3CCCCC3)CC2)nc1 (stereo not shown) [Compound 12, 2-[[1-(4-Cyclohexyl-1-piperazinyl)-2-(cyclohexylmethyl)-2,3-dihydro-1H-inden-5-yl]oxy]pyrimidine] | 1.9 |  | 
COc1ccc(S(=O)(=O)c2ccc3c(c2)CCC3N2CCC(N3CCCCC3)CC2)cc1 (stereo not shown) [Compound 13] | 4.0 | 2.0 | 

Source: US5935958A, “Muscarinic antagonists” (Schering Corporation, priority 1997, dated 1999)
